Drawing on patent US9266908B2, “Inhibitors of arginase and their therapeutic applications” (MARS, INCORPORATED, priority 2011, dated 2016), this text covers IC50 for 22 compounds.

The target of one test is T1, human-Arginase-1 (Homo sapiens, UniProt P05089).
T1 construct: expressed in transfected cells; host or cells: CHOK cells
T1 sequence (P05089 1-322): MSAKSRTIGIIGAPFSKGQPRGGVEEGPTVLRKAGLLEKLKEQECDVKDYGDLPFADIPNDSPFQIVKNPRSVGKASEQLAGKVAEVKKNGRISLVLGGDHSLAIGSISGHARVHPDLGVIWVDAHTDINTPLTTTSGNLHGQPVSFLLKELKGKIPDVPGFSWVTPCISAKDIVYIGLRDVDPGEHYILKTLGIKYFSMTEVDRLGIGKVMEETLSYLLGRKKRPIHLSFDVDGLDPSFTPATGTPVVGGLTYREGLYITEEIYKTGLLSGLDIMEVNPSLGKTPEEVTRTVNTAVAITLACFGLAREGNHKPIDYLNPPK
The test is described as follows: Urea production in CHOK cells stably transfected with human-Arginase-1. The test is classed as cell-based. The note with it: IC50 class, 5 mM arginine, 24 hours, read-out: CHOK Cell. The protocol: Table 3 also provides CHOK cell based IC50 values for illustrative arginase inhibitors. IC50 values were determined by measuring the production of urea in CHOK cells stably transfected with human-Arginase-1.
Briefly, CHOK cells were stably transfected with human-arginase-1. To determiner the IC50 values for compounds in accordance with the present invention, parental CHOK cells and arginase-1 stably transfected cells were plated in a 96 well plate. Cells were plated using 200 μl of complete growth medium and incubated overnight at 37° C.
Media from each of the wells containing cells was first removed and growth media supplemented with arginine at a concentration of 5 mM was added to each well. The test compounds were dissolved in PBS buffer to the desired concentration and added to appropriate wells. The plate was then incubated at 37° C. for 24 hours. After 24 hours the plates were spun down at 3000 RPM for 5 min and 50 μl of the media were transferred to a new plate.
An aqueous solution of o-phthaldehyde, Brij, sulfuric acid, primaquine diphosphate and boric acid was added to each well and the plate was incubated for 10-15 minutes. The urea concentration in each well was determined by measuring the optical density at 520-530 nanometers using a standard curve. The IC50 values were calculated by measuring urea production at various concentrations of the inventive arginase inhibitors after subtracting the value related to the concentration of urea in control wells.

The target of another test is T2, arginase II (ARG II) (Homo sapiens, UniProt P78540).
T2 sequence (P78540 23-354): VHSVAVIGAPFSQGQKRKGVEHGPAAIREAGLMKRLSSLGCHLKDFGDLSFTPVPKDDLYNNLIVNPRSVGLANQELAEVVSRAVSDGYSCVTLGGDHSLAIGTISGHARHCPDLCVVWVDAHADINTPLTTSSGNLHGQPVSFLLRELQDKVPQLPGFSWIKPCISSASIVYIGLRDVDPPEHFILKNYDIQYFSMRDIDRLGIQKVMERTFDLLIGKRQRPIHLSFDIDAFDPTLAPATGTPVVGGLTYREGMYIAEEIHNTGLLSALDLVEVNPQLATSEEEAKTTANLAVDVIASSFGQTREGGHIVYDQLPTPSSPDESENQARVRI
The test is described as follows: Inhibition of arginase II, spectrophotometric urea assay at 530 nm.

Another test has as its target T3, human arginase I (ARG I) (Homo sapiens, UniProt P05089).
T3 sequence (P05089 1-322): T1 sequence (P05089 1-322)
The test is described as follows: Inhibition of arginase I, spectrophotometric urea assay at 530 nm.

Method for arginase II (ARG II): (§1) Inhibition of arginase I (ARG I) and arginase II (ARG II) by the inventive compounds is followed spectrophotometrically at 530 nm. […] Solutions of arginase I and II are prepared in 100 mM sodium phosphate buffer, pH 7.4 containing 1 mg/ml of OVA to give an arginase stock solution at a final concentration of 100 ng/ml.
(§2) To each well of a 96-well microtiter plate is add 40 μl of enzyme, 10 μl of an inventive compound and 10 μl of enzyme substrate (L-arginine+ manganese sulfate). For wells that are used as positive controls, only the enzyme and its substrate are added, while wells used as negative controls contain only manganese sulfate.
(§3) After incubating the microtiter plate at 37° C. for 60 minutes, 150 μl of a urea reagent obtained by combining equal proportions (1:1) of reagents A and B is added to each well of the microtiter plate to stop the reaction. The urea reagent is made just before use by combining Reagent A (10 mM o-phthaldialdehyde, and 0.4% polyoxyethylene (23) lauryl ether (w/v) in 1.8 M sulfuric acid) with Reagent B (1.3 mM primaquine diphosphate, 0.4% polyoxyethylene (23) lauryl ether (w/v), 130 mM boric acid in 3.6 M sulfuric acid). After quenching the reaction mixture, the microtiter plate is allowed to stand for an additional 10 minutes at room temperature to allow color development. […] The normalized OD is then used to generate a dose-response curve by plotting the normalized OD values against log [concentration] and using regression analysis to compute the IC50 values.
Method for human arginase I (ARG I): as §1, §2, §3

`NC(CCCCB(O)O)(C(=O)O)[C@H]1C[C@@H](NCc2cccc(-c3ccc(C(F)(F)F)cc3)c2)C1` (stereo partly drawn) [Example 8, (S)-2-amino-6-borono-2-((1s,3R)-3-((4′-(trifluoromethyl)biphenyl-3-yl)methylamino)cyclobutyl)hexanoic acid]: the IC50 was in the range of 1000 to 25000 nM at human-Arginase-1, 0.1 to 25 nM on arginase II (ARG II) and 0.1 to 25 nM against human arginase I (ARG I).

On to `NC(CCCCB(O)O)(CCCN1CCc2c(Cl)cccc2C1)C(=O)O` (stereo not drawn) [Example 40, 2-amino-6-borono-2-(3-(5-chloro-3,4-dihydroisoquinolin-2(1H)-yl)propyl)hexanoic acid], for which the IC50 on human-Arginase-1 lay within 1000 to 25000 nM; at arginase II (ARG II), 101 to 500 nM; against human arginase I (ARG I) it was 26 to 100 nM.

As to `NC(CCCCB(O)O)(C(=O)O)[C@H]1C[C@@H](NCc2cccc(-c3ccccc3)c2F)C1` (mixture of isomers) [Example 48, (S)-2-amino-6-borono-2-((1s,3R)-3-((2-fluorobiphenyl-3-yl)methylamino)cyclobutyl)hexanoic acid], the IC50 at human-Arginase-1 is 26000 to 100000 nM; at arginase II (ARG II) it was 0.1 to 25 nM; against human arginase I (ARG I) it was 26 to 100 nM.

Regarding `NC(CCCCB(O)O)(C(=O)O)[C@H]1C[C@@H](NCc2c3ccccc3cc3ccccc23)C1` (stereo partly drawn) [Example 12, (S)-2-amino-2-((1s,3R)-3-(anthracen-9-ylmethylamino)cyclobutyl)-6-boronohexanoic acid], the IC50 lay in the range of 26000 to 100000 nM at human-Arginase-1, 0.1 to 25 nM against arginase II (ARG II) and 26 to 100 nM at human arginase I (ARG I).

With `NC(CCCCB(O)O)(C(=O)O)C1CC2CCC(C1)N2Cc1ccc(OC(F)(F)F)cc1` (stereo not drawn) [Example 64, 2-amino-6-borono-2-(8-(4-(trifluoromethoxy)benzyl)-8-azabicyclo[3.2.1]octan-3-yl)hexanoic acid], the IC50 was in the range of 26000 to 100000 nM at human-Arginase-1, 26 to 100 nM against arginase II (ARG II) and 26 to 100 nM against human arginase I (ARG I).

For the compound `NC(CCCCB(O)O)(C(=O)O)[C@H]1C[C@@H](NCc2ccc(-c3ccccc3)nc2)C1` (stereo partly drawn) [Example 23, (S)-2-amino-6-borono-2-((1s,3R)-3-((6-phenylpyridin-3-yl)methylamino)cyclobutyl)hexanoic acid], the IC50 at human-Arginase-1 was in the range of 1000 to 25000 nM; on arginase II (ARG II), 0.1 to 25 nM; on human arginase I (ARG I), 26 to 100 nM.

For the compound `NC(CCCCB(O)O)(C(=O)O)[C@H]1C[C@@H](NCc2ccc(-c3ccc(Cl)c(Cl)c3)cc2)C1` (stereo partly drawn) [Example 16, (S)-2-amino-6-borono-2-((1s,3R)-3-((3′,4′-dichlorobiphenyl-4-yl)methylamino)cyclobutyl)hexanoic acid], the IC50 lay within 1000 to 25000 nM on human-Arginase-1, 0.1 to 25 nM at arginase II (ARG II) and 0.1 to 25 nM at human arginase I (ARG I).

Turning to `NC(CCCCB(O)O)(C(=O)O)[C@H]1C[C@@H](NC2CCC(c3ccccc3)CC2)C1` (mixture of isomers) [Example 47, (S)-2-amino-6-borono-2-((1s,3R)-3-(4-phenylcyclohexylamino)cyclobutyl)hexanoic acid], the results for the IC50 on human-Arginase-1, against arginase II (ARG II) and against human arginase I (ARG I) were 26000 to 100000 nM, 0.1 to 25 nM and 26 to 100 nM, respectively.

As to `NC(CCCCB(O)O)(C(=O)O)[C@H]1C[C@@H](NCc2ccc3c(c2)Cc2ccccc2-3)C1` (stereo partly drawn) [Example 24, (S)-2-((1s,3R)-3-((9H-fluoren-2-yl)methylamino)cyclobutyl)-2-amino-6-boronohexanoic acid], the IC50 at human-Arginase-1 fell in the range of 26000 to 100000 nM; on arginase II (ARG II), 0.1 to 25 nM; at human arginase I (ARG I), 0.1 to 25 nM.

For the compound `NC(CCCCB(O)O)(C(=O)O)[C@H]1C[C@@H](NCc2ccccc2-c2ccc(C(F)(F)F)cc2)C1` (stereo partly drawn) [Example 25, (S)-2-amino-6-borono-2-((1s,3R)-3-((4′-(trifluoromethyl)biphenyl-2-yl)methylamino)cyclobutyl)hexanoic acid], the IC50 at human-Arginase-1 lay within 26000 to 100000 nM; against arginase II (ARG II) it was 26 to 100 nM; on human arginase I (ARG I), 26 to 100 nM.

`NC(CCCCB(O)O)(C(=O)O)[C@H]1C[C@@H](NCc2cccc3c(F)cccc23)C1` (stereo partly drawn) [Example 11, (S)-2-amino-6-borono-2-((1s,3R)-3-((5-fluoronaphthalen-1-yl)methylamino)cyclobutyl)hexanoic acid]: the IC50 was 1000 to 25000 nM on human-Arginase-1, 26 to 100 nM against arginase II (ARG II) and 0.1 to 25 nM against human arginase I (ARG I).

For `NC(CCCCB(O)O)(C(=O)O)[C@H]1C[C@@H](NCCCc2ccc(C(F)(F)F)cc2)C1` (stereo partly drawn) [Example 56, (S)-2-amino-6-borono-2-((1s,3R)-3-(3-(4-(trifluoromethyl)phenyl)propylamino)cyclobutyl)hexanoic acid], the figures for the IC50 at human-Arginase-1, on arginase II (ARG II) and against human arginase I (ARG I) were 26000 to 100000 nM, 26 to 100 nM and 0.1 to 25 nM, respectively.

In the case of `NC(CCCCB(O)O)(CCCN1Cc2ccccc2C1)C(=O)O` (stereo not drawn) [Example 39, 2-amino-6-borono-2-(3-(isoindolin-2-yl)propyl)hexanoic acid], the IC50 on human-Arginase-1 lay within 1000 to 25000 nM; at arginase II (ARG II), 101 to 500 nM; against human arginase I (ARG I) it was 26 to 100 nM.

For the compound `NC(CCCCB(O)O)(C(=O)O)C1CC2CCC(C1)N2Cc1ccc(Cl)c(Cl)c1` [Example 46, 2-Amino-6-borono-2-{(1R,5S)-8-(3,4-dichlorobenzyl)-8-aza-bicycli[3.2.1]-octan-3-yl}-hexanoic acid], the IC50 fell in the range of 1000 to 25000 nM on human-Arginase-1, 0.1 to 25 nM at arginase II (ARG II) and 0.1 to 25 nM at human arginase I (ARG I).

Regarding `NC(CCCCB(O)O)(C(=O)O)[C@H]1C[C@@H](NCc2ccc(-c3ccccc3F)c(F)c2)C1` (mixture of isomers) [Example 54, (S)-2-amino-6-borono-2-((1s,3R)-3-((2,2′-difluorobiphenyl-4-yl)methylamino)cyclobutyl)hexanoic acid], the IC50 at human-Arginase-1 was 26000 to 100000 nM; against arginase II (ARG II), 26 to 100 nM; at human arginase I (ARG I) it was 26 to 100 nM.

Turning to `NC(CCCCB(O)O)(CCCN1CCc2ccccc2C1)C(=O)O` (stereo not drawn) [Example 41, 2-amino-6-borono-2-(3-(3,4-dihydroisoquinolin-2(1H)-yl)propyl)hexanoic acid], the IC50 at human-Arginase-1 lay within 1000 to 25000 nM; on arginase II (ARG II), 101 to 500 nM; against human arginase I (ARG I) it was 101 to 500 nM.

On to `CNC(CCCCB(O)O)(CCN1CCC(C)CC1)C(=O)O` (stereo not drawn) [Example 33, 6-borono-2-(methylamino)-2-(2-(4-methylpiperidin-1-yl)ethyl)hexanoic acid], for which the IC50 at human-Arginase-1 is 26000 to 100000 nM; on arginase II (ARG II) it was 101 to 500 nM; against human arginase I (ARG I), 101 to 500 nM.

Turning to `Cc1ccc(F)c(-c2ccc(CN[C@H]3C[C@@H](C(N)(CCCCB(O)O)C(=O)O)C3)cc2F)c1` (mixture of isomers) [Example 52, (S)-2-amino-6-borono-2-((1s,3R)-3-((2,2′-difluoro-5′-methylbiphenyl-4-yl)methylamino)cyclobutyl)hexanoic acid], the IC50 on human-Arginase-1 was 1000 to 25000 nM; on arginase II (ARG II) it was 0.1 to 25 nM; at human arginase I (ARG I), 0.1 to 25 nM.

For `NC(CCCCB(O)O)(C(=O)O)[C@H]1C[C@@H](NCc2ccc(-c3ccc(Cl)cc3)cc2)C1` (stereo partly drawn) [Example 17, (S)-2-amino-6-borono-2-((1s,3R)-3-((4′-chlorobiphenyl-4-yl)methylamino)cyclobutyl)hexanoic acid], the results for the IC50 at human-Arginase-1, at arginase II (ARG II) and against human arginase I (ARG I) were 1000 to 25000 nM, 0.1 to 25 nM and 0.1 to 25 nM, respectively.

Take `NC(CCCCB(O)O)(C(=O)O)C1CC2CCC(C1)N2Cc1ccc(Cl)cc1` [Example 45, 2-amino-6-borono-2-{(1R,5S)-8-(4-chlorobenzyl)-8-aza-bicycli[3.2.1]-octan-3-yl}-hexanoic acid]: the IC50 was in the range of 1000 to 25000 nM at human-Arginase-1, 26 to 100 nM at arginase II (ARG II) and 0.1 to 25 nM at human arginase I (ARG I).

Consider `NC(CCCCB(O)O)(C(=O)O)[C@H]1C[C@@H](NCC2CCN(c3ccc(C(F)(F)F)cc3)CC2)C1` (mixture of isomers) [Example 60, (S)-2-amino-6-borono-2-((1s,3R)-3-((1-(4-(trifluoromethyl)phenyl)piperidin-4-yl)methylamino)cyclobutyl)hexanoic acid], for which the IC50 lay in the range of 26000 to 100000 nM at human-Arginase-1, 26 to 100 nM against arginase II (ARG II) and 0.1 to 25 nM on human arginase I (ARG I).

Turning to `NC(CCCCB(O)O)(C(=O)O)[C@H]1C[C@@H](NCc2ccccc2-c2ccc(Cl)cc2)C1` (stereo partly drawn) [Example 22, (S)-2-amino-6-borono-2-((1s,3R)-3-((4′-chlorobiphenyl-2-yl)methylamino)cyclobutyl)hexanoic acid], the IC50 on human-Arginase-1 was 26000 to 100000 nM; on arginase II (ARG II), 26 to 100 nM; against human arginase I (ARG I) it was 26 to 100 nM.
